One test concerns L1210. As to the kind of experiment: Cytotoxicity against mouse L1210 cells. It is filed as functional, cell-based.
In another test the test system is Nucleic Acid. The test is described as follows: Induction of w794 DNA alkylation at 10 uM after 24 hrs by PAGE. It is filed as nucleic-acid assay.

Molecules are shown by their SMILES. Active and inactive are the calls of the source. The rule behind the calls is not given here.

`COC(=O)c1cc2c(s1)C(=O)C=C1N(C(=O)c3cc4cc(OC)c(OC)c(OC)c4[nH]3)C[C@H]3C[C@]123` gave an IC50 in the test with L1210 of 0.007 nM. Regarding `COC(=O)c1cc2c([nH]1)C(=O)C=C1N(C(=O)c3cc4cc(OC)c(OC)c(OC)c4[nH]3)C[C@H]3C[C@]123`, the outcome with Nucleic Acid was Active. The compound `COC(=O)c1cc2c(s1)C(=O)C=C1N(C(=O)OC(C)(C)C)C[C@@H]3C[C@@]123` registered a concentration for half-maximal inhibition (IC50) in the test on L1210 of 55 nM. Compound `COC(=O)c1cc2c(s1)C(=O)C=C1N(C(=O)c3cc4cc(OC)c(OC)c(OC)c4[nH]3)C[C@@H]3C[C@@]123` registered a half-inhibitory concentration (IC50) in the test with L1210 of 0.06 nM. In the test with Nucleic Acid, the result was Active. In the case of `COC(=O)c1cc2c([nH]1)C(=O)C=C1N(C(=O)c3cc4cc(OC)c(OC)c(OC)c4[nH]3)C[C@@H]3C[C@@]123`, in the test on Nucleic Acid, the outcome was Active.

In the case of `COC(=O)c1cc2c(s1)C(=O)C=C1N(C(=O)OC(C)(C)C)C[C@H]3C[C@]123`, inhibition in the test with L1210 was half-maximal at 6 nM (IC50). `COC(=O)c1cc2c([nH]1)C(=O)C=C1N(C(=O)OC(C)(C)C)C[C@@H]3C[C@@]123`: the concentration for half-maximal inhibition (IC50) in the test with L1210 worked out at 60 nM.

What is called IC50 is the concentration that inhibits the measured activity by half. A low value points to inhibition by little substance.

For the origin of these results see ChEMBL document CHEMBL1153708, “Synthesis and evaluation of a thio analogue of duocarmycin SA” (Bioorg Med Chem Lett, 2009).
